Measured values from ChEMBL document CHEMBL1122788, “Quantitative relationships between alpha-adrenergic activity and binding affinity of alpha-adrenoceptor agonists and antagonists” (J Med Chem, 1984).

How the values were obtained:
[1] = biological target: T1, Adrenergic receptor alpha-2 (Rattus norvegicus, UniProt P22086+P19328+P22909); assay: Antagonist activity against B-HT 933-induced alpha-2-adrenoceptor-mediated vasoconstriction in pithed normotensive rats; format: functional
T1 sequence (P22086 whole entry): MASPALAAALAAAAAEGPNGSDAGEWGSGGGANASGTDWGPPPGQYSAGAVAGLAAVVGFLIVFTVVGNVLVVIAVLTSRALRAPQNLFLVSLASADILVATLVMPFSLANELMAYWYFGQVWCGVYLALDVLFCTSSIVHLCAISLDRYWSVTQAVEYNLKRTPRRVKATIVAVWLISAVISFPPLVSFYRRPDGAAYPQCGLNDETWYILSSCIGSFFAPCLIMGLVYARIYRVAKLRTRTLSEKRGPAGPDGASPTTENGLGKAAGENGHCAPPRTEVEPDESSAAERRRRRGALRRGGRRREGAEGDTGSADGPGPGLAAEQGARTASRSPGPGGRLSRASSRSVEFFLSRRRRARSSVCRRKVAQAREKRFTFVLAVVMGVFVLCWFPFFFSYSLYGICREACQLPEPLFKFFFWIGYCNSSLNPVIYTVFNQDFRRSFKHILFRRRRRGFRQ
T1 sequence (P19328 whole entry): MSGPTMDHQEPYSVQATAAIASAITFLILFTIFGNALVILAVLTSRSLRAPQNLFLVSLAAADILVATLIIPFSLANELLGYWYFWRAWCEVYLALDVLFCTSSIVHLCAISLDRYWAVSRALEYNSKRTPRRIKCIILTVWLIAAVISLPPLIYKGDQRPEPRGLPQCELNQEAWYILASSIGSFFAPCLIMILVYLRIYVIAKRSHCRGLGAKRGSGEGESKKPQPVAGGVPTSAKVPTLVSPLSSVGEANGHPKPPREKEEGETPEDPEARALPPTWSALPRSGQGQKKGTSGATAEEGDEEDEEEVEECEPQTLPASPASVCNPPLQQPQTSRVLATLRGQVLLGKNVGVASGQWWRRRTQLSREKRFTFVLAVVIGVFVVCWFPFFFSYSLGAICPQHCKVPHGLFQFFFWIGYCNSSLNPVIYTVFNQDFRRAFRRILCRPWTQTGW
T1 sequence (P22909 whole entry): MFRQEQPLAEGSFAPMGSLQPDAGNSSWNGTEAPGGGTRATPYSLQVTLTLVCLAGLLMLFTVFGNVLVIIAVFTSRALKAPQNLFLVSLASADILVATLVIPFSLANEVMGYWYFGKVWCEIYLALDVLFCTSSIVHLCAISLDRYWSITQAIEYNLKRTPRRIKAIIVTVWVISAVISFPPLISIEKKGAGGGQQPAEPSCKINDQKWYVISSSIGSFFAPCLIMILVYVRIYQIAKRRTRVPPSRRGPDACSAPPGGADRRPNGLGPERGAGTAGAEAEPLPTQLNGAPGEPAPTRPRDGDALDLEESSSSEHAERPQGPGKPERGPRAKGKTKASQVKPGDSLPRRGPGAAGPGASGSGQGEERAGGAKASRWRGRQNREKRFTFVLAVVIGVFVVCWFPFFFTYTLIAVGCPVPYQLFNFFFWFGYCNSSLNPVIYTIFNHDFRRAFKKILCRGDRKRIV

[2] = biological target: T1, Adrenergic receptor alpha-2; assay: Inhibition of specific [3H]clonidine binding (0.4 nM) to rat brain membranes alpha-2 adrenergic receptor; format: cell membranes, Membrane
[3] = biological target: T2, Adrenergic receptor alpha-1 (Homo sapiens, UniProt P35348+P25100+P35368); assay: In vitro antagonist activity against (-)-phenylephrine or (-)-norepinephrine-induced alpha1-adrenoceptor-mediated vasoconstriction of rabbit isolated pulmonary artery.; format: functional, Oryctolagus cuniculus; conditions: target entry is the homologue from another species
T2 sequence (P35348 whole entry): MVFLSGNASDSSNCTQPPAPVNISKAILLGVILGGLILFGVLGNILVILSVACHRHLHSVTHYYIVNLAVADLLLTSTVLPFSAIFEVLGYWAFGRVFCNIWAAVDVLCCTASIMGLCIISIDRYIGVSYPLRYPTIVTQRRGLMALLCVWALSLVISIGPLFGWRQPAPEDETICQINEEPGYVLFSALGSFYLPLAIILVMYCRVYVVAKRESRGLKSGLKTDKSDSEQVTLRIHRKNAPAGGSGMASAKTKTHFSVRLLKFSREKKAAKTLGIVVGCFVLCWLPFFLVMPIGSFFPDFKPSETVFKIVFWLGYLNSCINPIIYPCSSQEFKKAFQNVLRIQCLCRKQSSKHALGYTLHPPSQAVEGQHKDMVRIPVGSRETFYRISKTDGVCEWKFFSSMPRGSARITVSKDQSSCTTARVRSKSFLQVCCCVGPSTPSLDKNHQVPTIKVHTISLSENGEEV
T2 sequence (P25100 whole entry): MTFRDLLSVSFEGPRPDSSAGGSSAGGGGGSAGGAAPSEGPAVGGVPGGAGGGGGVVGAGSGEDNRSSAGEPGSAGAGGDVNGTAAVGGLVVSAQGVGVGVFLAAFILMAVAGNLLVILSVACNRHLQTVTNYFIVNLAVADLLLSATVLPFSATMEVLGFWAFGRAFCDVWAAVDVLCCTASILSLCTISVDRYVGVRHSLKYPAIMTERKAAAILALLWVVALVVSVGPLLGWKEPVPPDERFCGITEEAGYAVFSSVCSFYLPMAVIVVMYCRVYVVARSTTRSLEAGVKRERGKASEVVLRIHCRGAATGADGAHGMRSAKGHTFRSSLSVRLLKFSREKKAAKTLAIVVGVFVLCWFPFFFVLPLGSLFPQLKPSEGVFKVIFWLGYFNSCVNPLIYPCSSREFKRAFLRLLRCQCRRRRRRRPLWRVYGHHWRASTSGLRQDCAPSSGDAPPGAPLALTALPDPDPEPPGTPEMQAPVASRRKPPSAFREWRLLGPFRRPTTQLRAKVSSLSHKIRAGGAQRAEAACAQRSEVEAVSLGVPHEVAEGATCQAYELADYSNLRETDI
T2 sequence (P35368 whole entry): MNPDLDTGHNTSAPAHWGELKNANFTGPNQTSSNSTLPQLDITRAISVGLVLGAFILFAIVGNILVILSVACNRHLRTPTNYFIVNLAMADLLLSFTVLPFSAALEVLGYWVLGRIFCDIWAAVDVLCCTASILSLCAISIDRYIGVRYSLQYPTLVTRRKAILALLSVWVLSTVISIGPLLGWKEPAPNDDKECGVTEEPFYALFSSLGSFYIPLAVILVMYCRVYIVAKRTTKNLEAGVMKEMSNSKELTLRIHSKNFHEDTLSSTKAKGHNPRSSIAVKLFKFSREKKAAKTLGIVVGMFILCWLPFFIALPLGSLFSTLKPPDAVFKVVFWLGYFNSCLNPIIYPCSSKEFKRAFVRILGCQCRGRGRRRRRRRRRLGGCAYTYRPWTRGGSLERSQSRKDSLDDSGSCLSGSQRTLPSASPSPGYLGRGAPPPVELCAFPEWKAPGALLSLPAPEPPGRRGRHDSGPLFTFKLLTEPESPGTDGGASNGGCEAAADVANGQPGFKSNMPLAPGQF

Oryctolagus cuniculus = organism: Oryctolagus cuniculus; assay: Index of alpha1/alpha2 adrenoceptor antagonist selectivity at pre and postsynaptic sites in vitro.; format: functional

SMILES	pA2 [1]	IC50 [2]	pA2 [3]	Selectivity index (Oryctolagus cuniculus)
CN1C[C@H](C(=O)N[C@]2(C)O[C@@]3(O)[C@@H]4CCCN4C(=O)[C@H](Cc4ccccc4)N3C2=O)C[C@@H]2c3cccc4[nH]cc(c34)C[C@H]21 [DIHYDROERGOTAMINE]	7.25	3.7 nM	7.55	
C=CCN1Cc2ccccc2-c2ccccc2C1 [AZAPETINE]	4.88	1300 nM	6.96	1.08
